ChEMBL document CHEMBL5291721, “A preclinical secondary pharmacology resource illuminates target-adverse drug reaction associations of marketed drugs” (Nat Commun, 2023)

What was measured:
[1] = molecular target: T1, Muscarinic acetylcholine receptor M1 (Homo sapiens, UniProt P11229); format: functional
T1 sequence (P11229 whole entry): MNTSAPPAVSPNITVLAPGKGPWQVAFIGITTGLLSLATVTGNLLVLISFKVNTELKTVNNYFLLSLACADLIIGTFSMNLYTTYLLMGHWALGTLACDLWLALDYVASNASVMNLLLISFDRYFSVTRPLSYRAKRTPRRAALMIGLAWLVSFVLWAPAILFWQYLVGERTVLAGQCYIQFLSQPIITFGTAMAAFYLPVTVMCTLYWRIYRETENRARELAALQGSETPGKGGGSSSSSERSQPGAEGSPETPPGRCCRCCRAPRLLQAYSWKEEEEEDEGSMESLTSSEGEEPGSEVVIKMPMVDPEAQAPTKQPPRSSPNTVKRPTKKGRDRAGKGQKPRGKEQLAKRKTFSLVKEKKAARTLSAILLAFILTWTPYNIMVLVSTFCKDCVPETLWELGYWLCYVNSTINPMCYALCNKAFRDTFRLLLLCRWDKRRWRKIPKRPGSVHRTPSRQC

[2] = molecular target: Beta-2 adrenergic receptor (Homo sapiens, UniProt P07550); format: functional, cell-based
Chain of Beta-2 adrenergic receptor (P07550 whole entry): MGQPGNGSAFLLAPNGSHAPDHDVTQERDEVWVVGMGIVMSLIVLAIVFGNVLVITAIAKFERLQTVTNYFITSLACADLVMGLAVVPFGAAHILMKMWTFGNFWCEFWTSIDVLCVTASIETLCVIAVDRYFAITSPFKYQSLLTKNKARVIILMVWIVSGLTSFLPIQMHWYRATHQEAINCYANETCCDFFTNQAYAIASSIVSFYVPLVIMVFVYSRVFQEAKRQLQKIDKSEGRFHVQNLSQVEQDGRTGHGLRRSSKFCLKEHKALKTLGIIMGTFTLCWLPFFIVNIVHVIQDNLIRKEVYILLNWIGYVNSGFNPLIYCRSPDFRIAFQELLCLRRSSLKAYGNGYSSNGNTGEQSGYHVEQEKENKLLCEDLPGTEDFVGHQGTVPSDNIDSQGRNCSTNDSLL

[3] = molecular target: Histamine H3 receptor (Homo sapiens, UniProt Q9Y5N1)
Chain of Histamine H3 receptor (Q9Y5N1 whole entry): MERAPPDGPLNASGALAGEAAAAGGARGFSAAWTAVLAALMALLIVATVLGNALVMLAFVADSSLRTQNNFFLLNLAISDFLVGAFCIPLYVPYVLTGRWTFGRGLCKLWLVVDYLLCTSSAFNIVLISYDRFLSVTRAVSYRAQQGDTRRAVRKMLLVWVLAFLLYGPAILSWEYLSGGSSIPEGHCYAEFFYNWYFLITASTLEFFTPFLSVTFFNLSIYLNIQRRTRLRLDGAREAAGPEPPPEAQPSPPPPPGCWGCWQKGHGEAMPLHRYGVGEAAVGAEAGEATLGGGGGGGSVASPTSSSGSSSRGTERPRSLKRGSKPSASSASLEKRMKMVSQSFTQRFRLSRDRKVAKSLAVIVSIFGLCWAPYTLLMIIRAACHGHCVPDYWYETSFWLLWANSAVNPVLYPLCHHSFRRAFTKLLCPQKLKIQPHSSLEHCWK

[4] = molecular target: Histamine H1 receptor (Homo sapiens, UniProt P35367)
Chain of Histamine H1 receptor (P35367 whole entry): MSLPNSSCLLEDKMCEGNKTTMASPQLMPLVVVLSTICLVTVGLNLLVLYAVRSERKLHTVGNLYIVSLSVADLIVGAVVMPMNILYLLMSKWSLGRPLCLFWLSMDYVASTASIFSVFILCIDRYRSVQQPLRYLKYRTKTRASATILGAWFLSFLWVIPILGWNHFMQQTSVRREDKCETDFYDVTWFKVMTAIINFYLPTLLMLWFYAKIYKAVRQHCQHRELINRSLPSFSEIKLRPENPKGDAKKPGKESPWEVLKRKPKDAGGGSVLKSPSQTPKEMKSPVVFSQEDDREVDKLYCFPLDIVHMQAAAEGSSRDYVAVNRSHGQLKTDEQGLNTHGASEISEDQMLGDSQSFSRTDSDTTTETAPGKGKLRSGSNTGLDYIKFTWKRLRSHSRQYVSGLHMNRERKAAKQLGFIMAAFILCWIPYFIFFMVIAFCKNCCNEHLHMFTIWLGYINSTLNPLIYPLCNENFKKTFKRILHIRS

[5] = molecular target: Cannabinoid receptor 1 (Homo sapiens, UniProt P21554)
Chain of Cannabinoid receptor 1 (P21554 whole entry): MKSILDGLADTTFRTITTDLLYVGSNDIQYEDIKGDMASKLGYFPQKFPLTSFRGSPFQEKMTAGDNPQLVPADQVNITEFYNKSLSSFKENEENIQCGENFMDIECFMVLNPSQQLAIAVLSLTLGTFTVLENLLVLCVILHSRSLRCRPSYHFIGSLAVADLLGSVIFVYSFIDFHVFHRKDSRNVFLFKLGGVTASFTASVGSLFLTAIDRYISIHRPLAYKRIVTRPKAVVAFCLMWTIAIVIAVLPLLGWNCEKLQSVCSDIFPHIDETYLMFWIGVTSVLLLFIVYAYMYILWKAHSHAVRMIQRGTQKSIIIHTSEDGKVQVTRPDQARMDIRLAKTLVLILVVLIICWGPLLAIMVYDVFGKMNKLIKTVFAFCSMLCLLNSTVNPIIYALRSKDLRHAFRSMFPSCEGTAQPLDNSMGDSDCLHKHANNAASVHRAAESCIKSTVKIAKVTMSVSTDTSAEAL

[6] = molecular target: Muscarinic acetylcholine receptor M3 (Homo sapiens, UniProt P20309)
Chain of Muscarinic acetylcholine receptor M3 (P20309 whole entry): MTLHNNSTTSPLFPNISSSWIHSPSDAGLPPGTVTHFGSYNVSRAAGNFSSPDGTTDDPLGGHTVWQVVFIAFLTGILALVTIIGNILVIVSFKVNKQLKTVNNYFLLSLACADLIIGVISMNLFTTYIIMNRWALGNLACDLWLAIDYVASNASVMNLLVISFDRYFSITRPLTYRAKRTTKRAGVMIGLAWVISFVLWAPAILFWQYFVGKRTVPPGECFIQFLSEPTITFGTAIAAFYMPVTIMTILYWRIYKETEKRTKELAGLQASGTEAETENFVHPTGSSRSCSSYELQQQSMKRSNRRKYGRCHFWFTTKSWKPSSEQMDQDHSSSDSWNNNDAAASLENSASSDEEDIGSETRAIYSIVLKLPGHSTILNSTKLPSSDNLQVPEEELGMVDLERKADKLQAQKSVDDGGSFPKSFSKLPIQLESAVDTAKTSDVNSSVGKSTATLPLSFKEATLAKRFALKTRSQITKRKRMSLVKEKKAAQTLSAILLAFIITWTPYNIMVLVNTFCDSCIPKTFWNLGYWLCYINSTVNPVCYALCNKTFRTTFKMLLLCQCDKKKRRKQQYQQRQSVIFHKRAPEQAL

[7] = molecular target: Gamma-aminobutyric acid receptor subunit alpha-1 (Rattus norvegicus, UniProt P62813)
Chain of Gamma-aminobutyric acid receptor subunit alpha-1 (P62813 whole entry): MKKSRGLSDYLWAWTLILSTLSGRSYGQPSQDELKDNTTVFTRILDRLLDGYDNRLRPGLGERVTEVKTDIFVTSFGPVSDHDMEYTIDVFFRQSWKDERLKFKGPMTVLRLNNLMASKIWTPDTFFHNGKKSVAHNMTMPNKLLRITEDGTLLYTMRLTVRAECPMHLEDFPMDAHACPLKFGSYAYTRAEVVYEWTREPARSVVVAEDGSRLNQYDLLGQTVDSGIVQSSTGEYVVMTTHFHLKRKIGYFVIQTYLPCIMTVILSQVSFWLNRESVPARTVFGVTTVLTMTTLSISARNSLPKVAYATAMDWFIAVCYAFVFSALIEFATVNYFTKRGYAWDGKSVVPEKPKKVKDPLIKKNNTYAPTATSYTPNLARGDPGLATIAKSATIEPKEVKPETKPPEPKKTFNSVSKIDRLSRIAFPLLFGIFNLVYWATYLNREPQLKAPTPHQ

[8] = molecular target: T2, Alpha-1A adrenergic receptor (Homo sapiens, UniProt P35348); format: functional, cell-based
T2 sequence (P35348 whole entry): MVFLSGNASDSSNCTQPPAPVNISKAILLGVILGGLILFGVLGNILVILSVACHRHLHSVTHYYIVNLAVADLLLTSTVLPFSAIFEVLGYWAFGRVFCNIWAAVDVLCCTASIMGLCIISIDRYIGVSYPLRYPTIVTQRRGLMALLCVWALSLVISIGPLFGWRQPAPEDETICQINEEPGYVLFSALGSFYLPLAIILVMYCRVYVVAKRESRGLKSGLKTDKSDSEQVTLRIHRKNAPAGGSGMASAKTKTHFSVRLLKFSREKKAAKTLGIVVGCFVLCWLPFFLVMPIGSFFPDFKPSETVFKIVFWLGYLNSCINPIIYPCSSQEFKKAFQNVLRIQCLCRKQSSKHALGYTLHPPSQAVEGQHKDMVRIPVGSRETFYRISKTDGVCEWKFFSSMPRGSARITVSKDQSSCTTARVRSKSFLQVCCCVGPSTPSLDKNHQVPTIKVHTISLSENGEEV

[9] = molecular target: 5-hydroxytryptamine receptor 2B (Homo sapiens, UniProt P41595); format: functional, cell-based
Chain of 5-hydroxytryptamine receptor 2B (P41595 whole entry): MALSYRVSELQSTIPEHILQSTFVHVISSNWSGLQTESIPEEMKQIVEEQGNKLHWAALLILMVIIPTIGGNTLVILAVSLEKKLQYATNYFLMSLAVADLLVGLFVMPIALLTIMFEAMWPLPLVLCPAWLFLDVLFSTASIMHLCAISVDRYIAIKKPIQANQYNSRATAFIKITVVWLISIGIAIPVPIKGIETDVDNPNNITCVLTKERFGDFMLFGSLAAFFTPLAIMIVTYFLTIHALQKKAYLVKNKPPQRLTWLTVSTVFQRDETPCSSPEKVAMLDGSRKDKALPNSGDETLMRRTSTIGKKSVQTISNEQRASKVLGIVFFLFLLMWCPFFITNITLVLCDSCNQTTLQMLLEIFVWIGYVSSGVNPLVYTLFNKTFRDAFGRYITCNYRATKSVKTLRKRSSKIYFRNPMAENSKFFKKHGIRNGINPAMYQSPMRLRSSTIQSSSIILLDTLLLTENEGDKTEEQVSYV

[10] = molecular target: Beta-1 adrenergic receptor (Homo sapiens, UniProt P08588); format: functional
Chain of Beta-1 adrenergic receptor (P08588 whole entry): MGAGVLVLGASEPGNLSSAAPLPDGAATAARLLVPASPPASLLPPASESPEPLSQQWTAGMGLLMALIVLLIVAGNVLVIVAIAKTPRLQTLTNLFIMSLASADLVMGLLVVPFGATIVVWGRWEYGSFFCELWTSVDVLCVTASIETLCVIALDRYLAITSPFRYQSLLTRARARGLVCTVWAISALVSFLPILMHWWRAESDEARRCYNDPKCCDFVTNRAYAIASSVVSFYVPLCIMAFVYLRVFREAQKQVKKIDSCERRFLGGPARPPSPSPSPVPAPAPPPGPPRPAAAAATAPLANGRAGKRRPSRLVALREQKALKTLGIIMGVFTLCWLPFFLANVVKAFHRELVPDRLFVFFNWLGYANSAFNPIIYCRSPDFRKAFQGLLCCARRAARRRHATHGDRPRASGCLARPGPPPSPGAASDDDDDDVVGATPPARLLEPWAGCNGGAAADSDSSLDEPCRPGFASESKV

[11] = molecular target: Mu-type opioid receptor (Homo sapiens, UniProt P35372); test: biochemical; format: functional
Chain of Mu-type opioid receptor (P35372 whole entry): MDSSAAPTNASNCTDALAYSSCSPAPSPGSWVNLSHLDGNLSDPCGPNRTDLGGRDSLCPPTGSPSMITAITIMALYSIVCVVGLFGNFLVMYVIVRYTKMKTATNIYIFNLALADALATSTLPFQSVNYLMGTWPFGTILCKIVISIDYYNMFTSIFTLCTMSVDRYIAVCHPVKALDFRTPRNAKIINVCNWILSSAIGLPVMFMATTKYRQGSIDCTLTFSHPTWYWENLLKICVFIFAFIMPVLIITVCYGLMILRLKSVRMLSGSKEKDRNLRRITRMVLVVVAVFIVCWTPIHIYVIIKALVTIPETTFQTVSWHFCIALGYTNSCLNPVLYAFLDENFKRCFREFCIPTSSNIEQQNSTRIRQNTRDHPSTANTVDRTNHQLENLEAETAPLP

[12] = molecular target: T3, 5-hydroxytryptamine receptor 2A (Homo sapiens, UniProt P28223); format: functional, cell-based
T3 sequence (P28223 whole entry): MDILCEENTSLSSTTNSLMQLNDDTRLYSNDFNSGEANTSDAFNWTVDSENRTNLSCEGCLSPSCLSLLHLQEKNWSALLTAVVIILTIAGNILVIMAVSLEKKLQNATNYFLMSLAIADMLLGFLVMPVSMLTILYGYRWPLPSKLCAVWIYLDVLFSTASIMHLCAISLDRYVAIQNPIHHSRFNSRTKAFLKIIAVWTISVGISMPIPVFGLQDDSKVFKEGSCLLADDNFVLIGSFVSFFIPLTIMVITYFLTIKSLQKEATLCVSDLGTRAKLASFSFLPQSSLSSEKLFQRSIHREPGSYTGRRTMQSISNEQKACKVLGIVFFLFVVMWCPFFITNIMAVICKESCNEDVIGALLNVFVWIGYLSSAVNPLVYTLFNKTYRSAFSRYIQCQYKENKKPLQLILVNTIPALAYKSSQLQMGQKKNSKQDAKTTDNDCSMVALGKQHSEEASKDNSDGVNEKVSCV

[13] = molecular target: T3, 5-hydroxytryptamine receptor 2A; format: functional, cell-based; remark: listed apart in the source
[14] = molecular target: Vascular endothelial growth factor receptor 2 (Homo sapiens, UniProt P35968); format: functional
[15] = molecular target: T4, Thromboxane A2 receptor (Homo sapiens, UniProt P21731); format: functional, cell-based
T4 sequence (P21731 whole entry): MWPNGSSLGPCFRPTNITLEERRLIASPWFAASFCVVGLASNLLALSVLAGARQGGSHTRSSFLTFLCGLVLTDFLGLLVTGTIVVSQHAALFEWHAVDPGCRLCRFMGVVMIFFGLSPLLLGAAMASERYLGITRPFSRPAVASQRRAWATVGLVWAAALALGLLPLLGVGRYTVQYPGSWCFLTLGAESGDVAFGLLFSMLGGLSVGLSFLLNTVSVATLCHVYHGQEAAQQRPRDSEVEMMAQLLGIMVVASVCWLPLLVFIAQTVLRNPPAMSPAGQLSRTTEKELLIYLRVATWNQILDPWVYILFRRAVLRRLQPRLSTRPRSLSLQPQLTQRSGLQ

[16] = molecular target: D(1A) dopamine receptor (Homo sapiens, UniProt P21728)
[17] = molecular target: cGMP-inhibited 3',5'-cyclic phosphodiesterase 3A (Homo sapiens, UniProt Q14432); format: functional
[18] = molecular target: Sodium-dependent dopamine transporter (Homo sapiens, UniProt Q01959)
[19] = molecular target: T2, Alpha-1A adrenergic receptor; format: functional, cell-based; remark: listed apart in the source
[20] = molecular target: T4, Thromboxane A2 receptor; format: functional, cell-based; remark: listed apart in the source
[21] = molecular target: D(3) dopamine receptor (Homo sapiens, UniProt P35462)
[22] = molecular target: T5, Alpha-2A adrenergic receptor (Homo sapiens, UniProt P08913)
T5 sequence (P08913 whole entry): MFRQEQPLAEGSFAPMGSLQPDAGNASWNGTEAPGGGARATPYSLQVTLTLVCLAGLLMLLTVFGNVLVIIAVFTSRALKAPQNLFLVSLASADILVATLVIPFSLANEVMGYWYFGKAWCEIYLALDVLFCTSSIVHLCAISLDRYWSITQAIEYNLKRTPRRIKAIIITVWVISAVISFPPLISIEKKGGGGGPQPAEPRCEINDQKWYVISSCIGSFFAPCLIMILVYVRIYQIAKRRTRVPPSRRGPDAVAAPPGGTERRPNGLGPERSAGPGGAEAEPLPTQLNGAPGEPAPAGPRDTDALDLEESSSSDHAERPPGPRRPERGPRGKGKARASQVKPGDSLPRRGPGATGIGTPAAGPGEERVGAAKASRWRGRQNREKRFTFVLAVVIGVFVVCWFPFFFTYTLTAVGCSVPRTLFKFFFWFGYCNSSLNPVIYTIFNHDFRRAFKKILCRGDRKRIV
Also: assay procedure not described here.

Row | Compound | AC50 [1] | AC50 [2] | AC50 [3] | AC50 [4] | AC50 [5] | AC50 [6] | AC50 [7] | AC50 [8] | AC50 [9] | AC50 [10] | AC50 [11] | AC50 [13] | also measured
1 | CN1CCC(=C2c3ccccc3CCc3cccnc32)CC1 [AZATADINE] | 0.11 µM | > 30 µM | > 10 µM | 0.0066 µM | > 10 µM | > 30 µM | > 10 µM | > 30 µM | 1.6 µM | > 10 µM | – | – | –
2 | CCCCC(=O)O[C@]1(C(=O)CO)[C@@H](C)C[C@H]2[C@@H]3CCC4=CC(=O)C=C[C@]4(C)[C@@]3(F)[C@@H](O)C[C@@]21C [BETAMETHASONE VALERATE] | > 10 µM | > 30 µM | > 10 µM | > 10 µM | > 10 µM | > 30 µM | > 10 µM | > 30 µM | > 10 µM | > 10 µM | – | – | –
3 | COCC1=C(C(=O)O)N2C(=O)[C@@H](NC(=O)/C(=N\OC)c3csc(N)n3)[C@H]2SC1 [CEFPODOXIME] | > 30 µM | – | > 30 µM | > 30 µM | – | > 30 µM | > 30 µM | > 30 µM | > 30 µM | > 30 µM | > 30 µM | > 30 µM | AC50 [12]: > 30 µM
4 | CNC1=Nc2ccc(Cl)cc2C(c2ccccc2)=[N+]([O-])C1 [CHLORDIAZEPOXIDE] | – | > 30 µM | > 10 µM | – | > 10 µM | – | > 10 µM | > 30 µM | > 10 µM | > 10 µM | – | – | –
5 | COc1cc(N)c(Cl)cc1C(=O)NC1CCN(Cc2ccccc2)CC1 [CLEBOPRIDE] | > 30 µM | – | > 30 µM | > 30 µM | – | > 30 µM | > 30 µM | 14 µM | 0.98 µM | – | > 30 µM | > 30 µM | AC50 [12]: 2.4 µM
6 | CC(CCc1ccc(O)cc1)NCCc1ccc(O)c(O)c1 (configuration not stated) [DOBUTAMINE] | – | > 30 µM | > 30 µM | – | > 30 µM | – | > 30 µM | – | > 30 µM | 5.58 µM | > 30 µM | – | –
7 | CCC(=O)O[C@]1(C(=O)SCF)[C@H](C)C[C@H]2[C@@H]3C[C@H](F)C4=CC(=O)C=C[C@]4(C)[C@@]3(F)[C@@H](O)C[C@@]21C [FLUTICASONE PROPIONATE] | > 30 µM | > 30 µM | > 30 µM | > 30 µM | > 30 µM | > 30 µM | > 30 µM | > 30 µM | > 30 µM | > 30 µM | > 30 µM | – | AC50 [14]: > 30 µM; AC50 [15]: > 30 µM; AC50 [16]: > 30000 nM; AC50 [17]: > 30 µM; AC50 [18]: > 30 µM; AC50 [19]: > 30000 nM; AC50 [20]: > 30 µM; AC50 [21]: > 30000 nM; AC50 [22]: > 30 µM
8 | Oc1ccc2c(c1)CC[C@H](c1ccccc1)[C@@H]2c1ccc(OCCN2CCCC2)cc1 [LASOFOXIFENE] | 11 µM | > 30 µM | 0.99 µM | 20 µM | – | 11 µM | > 30 µM | 12 µM | 9.49 µM | 10 µM | > 30 µM | 12 µM | –
9 | CN1CCN(C2=Nc3ccccc3Oc3ccc(Cl)cc32)CC1 [LOXAPINE] | 0.794 µM | > 30 µM | > 10 µM | – | > 10 µM | – | > 10 µM | 0.44 µM | – | > 10 µM | > 30 µM | – | AC50 [14]: > 30 µM; AC50 [15]: 18.5 µM; AC50 [16]: 24.5 nM; AC50 [17]: > 30 µM; AC50 [18]: 23.3 µM; AC50 [19]: 73.4 nM; AC50 [20]: > 30 µM; AC50 [21]: 19 nM
10 | CC12CC3CC(C)(C1)CC(N)(C3)C2 [MEMANTINE] | > 10 µM | > 30 µM | > 10 µM | > 10 µM | > 10 µM | > 30 µM | > 10 µM | > 30 µM | > 10 µM | > 10 µM | – | – | –
11 | CN(C)CCCNc1c2ccccc2nc2cccc([N+](=O)[O-])c12 [NITRACRINE] | 11 µM | > 30 µM | > 10 µM | 14 µM | – | 19 µM | > 30 µM | 6.7 µM | 0.76 µM | > 30 µM | > 30 µM | – | –
12 | CCOC(=O)C1=C(C)NC(C)=C(C(=O)OC)C1c1cccc([N+](=O)[O-])c1 (configuration not stated) [NITRENDIPINE] | – | > 30 µM | > 10 µM | – | > 10 µM | – | > 10 µM | > 30 µM | > 10 µM | > 10 µM | – | – | –
13 | C#C[C@]1(OC(C)=O)CC[C@H]2[C@@H]3CCC4=C/C(=N/O)CC[C@@H]4[C@H]3CC[C@@]21CC [NORGESTIMATE] | > 30 µM | – | > 30 µM | > 30 µM | – | – | > 30 µM | > 30 µM | > 30 µM | > 30 µM | > 30 µM | > 30 µM | AC50 [12]: > 30 µM
14 | CC(N)C(O)c1ccccc1 (configuration not stated) [PHENYLPROPANOLAMINE] | > 10 µM | > 30 µM | > 10 µM | > 10 µM | > 10 µM | – | > 10 µM | > 30 µM | > 10 µM | > 10 µM | – | – | –
15 | CNCc1ccc(-c2[nH]c3cc(F)cc4c3c2CCNC4=O)cc1 [RUCAPARIB] | > 10 µM | – | – | > 10 µM | – | – | – | – | – | 40.1 µM | – | > 10 µM | AC50 [12]: > 10 µM
16 | CC1(C)S[C@@H]2[C@H](NC(=O)[C@H](N)c3ccccc3)C(=O)N2[C@H]1C(=O)OCOC(=O)[C@@H]1N2C(=O)C[C@H]2S(=O)(=O)C1(C)C [SULTAMICILLIN] | > 30 µM | – | > 30 µM | > 30 µM | – | > 30 µM | – | > 30 µM | > 30 µM | – | > 30 µM | > 30 µM | AC50 [12]: > 30 µM
17 | CCCC(CCC)C(N)=O [VALPROMIDE] | > 10 µM | > 30 µM | > 10 µM | > 10 µM | > 10 µM | > 30 µM | > 10 µM | > 30 µM | > 10 µM | > 10 µM | – | – | –
